Assay results as given in paper PMC3337729 (Anesthesiology, 2011).

Tests used:
[1] = biological target: T1, Complex I (NADH-ubiquinone oxidoreductase) (Rattus norvegicus, UniProt A6K8N6+P03889+Q5XIH3+Q641Y2); assay: rotenone-sensitive NADH oxidation, absorbance at […] nm; format: biochemical; settings: read-out: % of control activity at 0.5 mM
[2] = biological target: T1, Complex I (NADH-ubiquinone oxidoreductase); assay: as above; format: biochemical; settings: 0.2 mM NADH, antimycin A present

FC(F)OC(Cl)C(F)(F)F (stereo not drawn) [isoflurane]
remaining activity at 500 µM [1]: 86 ± 5%

CCCCCCCCCCC1=C(C)C(=O)C(OC)=C(OC)C1=O [decylubiquinone]
rotenone-sensitive NADH oxidation, absorbance at 340 nm ([2]; decylubiquinone printed as 75 mM): rotenone-sensitive reduction of NADH absorbance using decylubiquinone as acceptor

NC(=O)C1=CN([C@@H]2O[C@H](COP(=O)(O)OP(=O)(O)OC[C@H]3O[C@@H](n4cnc5c(N)ncnc54)[C@H](O)[C@@H]3O)[C@@H](O)[C@H]2O)C=CC1 [NADH]
rotenone-sensitive NADH oxidation, absorbance at 340 nm ([2]; decylubiquinone acceptor): Complex I activity was determined by the rotenone-sensitive reduction of NADH absorbance using decylubiquinone
